Results taken from the supplement of paper PMC10307832.

What was measured:
Assay in all cases: relative viability (nuclei count vs DMSO), 5 days (fraction); higher = more cells survive
[1] = compound: Cn1c(Nc2ccc(C(F)(F)F)cc2)nc2cc(Oc3ccnc(-c4ncc(C(F)(F)F)[nH]4)c3)ccc21 [RAF265] + C[C@]1(O)C[C@@H](c2nc(-c3ccc4ccc(-c5ccccc5)nc4c3)c3c(N)nccn32)C1 [Linsitinib] (partner 1 µM)
In short: (§1)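 Nuclei were stained with Hoechst during a one-step fixation (final 0.05% Triton X-100, 1% formaldehyde, 1 ug/ml Hoechst) carried out 5 days after dosing, then counted on 4× images. The cells, lung cancer lines in 1536-well plates, had been dosed by pin tool the day after seeding with one drug alone or a fixed anchor-drug dose plus five library-drug doses (not always all listed) in √10 steps. Relative viability is the nuclei count in treated wells divided by that in vehicle wells, and each value is the median of duplicate plates.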

[2] = compound: Cc1ccc(-n2nc(C(C)(C)C)cc2NC(=O)Nc2ccc(OCCN3CCOCC3)c3ccccc23)cc1 [Doramapimod] + CS(=O)(=O)CCNCc1ccc(-c2ccc3ncnc(Nc4ccc(OCc5cccc(F)c5)c(Cl)c4)c3c2)o1 [Lapatinib] (partner 2 µM)
In short: as §1

[3] = compound: C1=CC=C2C(=C1)C=CC(=C2SSC3=C(C=CC4=CC=CC=C43)O)O [IPA-3] + CS(=O)(=O)N1CCN(Cc2cc3nc(-c4cccc5[nH]ncc45)nc(N4CCOCC4)c3s2)CC1 [Pictilisib] (partner 1 µM)
In short: as §1

[4] = compound: Cn1c(Nc2ccc(C(F)(F)F)cc2)nc2cc(Oc3ccnc(-c4ncc(C(F)(F)F)[nH]4)c3)ccc21 [RAF265] + CC1(C)CCC(c2ccc(Cl)cc2)=C(CN2CCN(c3ccc(C(=O)NS(=O)(=O)c4ccc(N[C@H](CCN5CCOCC5)CSc5ccccc5)c(S(=O)(=O)C(F)(F)F)c4)cc3)CC2)C1 [Navitoclax] (partner 0.5 µM)
In short: as §1

Cell Line | relative viability ([1]; first compound 0.01 µM) | relative viability ([1]; first compound 0.03162 µM) | relative viability ([1]; first compound 0.1 µM) | relative viability ([1]; first compound 0.3162 µM) | relative viability ([1]; first compound 1 µM) | relative viability ([2]; first compound 0.02 µM) | relative viability ([2]; first compound 0.06325 µM) | relative viability ([2]; first compound 0.2 µM) | relative viability ([2]; first compound 0.6325 µM) | relative viability ([2]; first compound 2 µM) | relative viability ([3]; first compound 0.2 µM) | relative viability ([3]; first compound 0.6325 µM) | relative viability ([3]; first compound 2 µM) | relative viability ([3]; first compound 6.325 µM) | relative viability ([3]; first compound 20 µM) | relative viability ([4]; first compound 0.01 µM) | relative viability ([4]; first compound 0.03162 µM) | relative viability ([4]; first compound 0.1 µM) | relative viability ([4]; first compound 0.3162 µM) | relative viability ([4]; first compound 1 µM)
EBC-1 | 0.963 | 0.856 | 0.754 | 0.577 | 0.503 | 0.255 | 0.198 | 0.17 | 0.209 | 0.197 | 0.434 | 0.316 | 0.354 | 0.265 | 0.269 | 0.398 | 0.366 | 0.332 | 0.283 | 0.312
NCI-H1355 | 0.791 | 0.67 | 0.72 | 0.458 | 0.298 | 0.972 | 0.992 | 0.964 | 0.95 | 0.952 | 0.396 | 0.396 | 0.466 | 0.484 | 0.401 | 1.01 | 0.831 | 0.919 | 0.532 | 0.264
NCI-H838 | 1.12 | 1.01 | 1.02 | 1.03 | 0.77 | 0.982 | 0.996 | 1.19 | 1.27 | 0.843 | 0.533 | 0.455 | 0.451 | 0.463 | 0.337 | 1.23 | 1.14 | 1.15 | 1.1 | 1.01
LK-2 | 0.615 | 0.555 | 0.67 | 0.671 | 0.351 | 0.972 | 0.873 | 0.904 | 0.68 | 0.754 | 0.47 | 0.572 | 0.708 | 0.646 | 0.695 | 0.777 | 0.791 | 0.832 | 0.633 | 0.57
IA-LM | 0.641 | 0.532 | 0.536 | 0.732 | 0.404 | 0.897 | – | 0.841 | 0.763 | 0.669 | 0.397 | 0.246 | 0.349 | 0.315 | 0.442 | 0.73 | – | 0.663 | 0.597 | 0.609
NCI-H1703 | 0.43 | 0.561 | 0.819 | 0.171 | 0.251 | 1.11 | 0.983 | 0.949 | 0.987 | 0.716 | 0.261 | 0.21 | 0.25 | 0.253 | 0.246 | 1.16 | 0.95 | 0.848 | 0.576 | 0.283
NCI-H322M | 0.929 | 0.807 | 0.662 | 0.377 | 0.256 | 0.59 | 0.601 | 0.644 | 0.798 | 0.605 | 0.501 | 0.272 | 0.508 | 0.481 | 0.572 | 1.18 | 1.14 | 1.15 | 0.381 | 0.274
NCI-H2228 | 0.628 | 0.698 | 0.409 | 0.436 | 0.327 | 1.12 | 0.926 | 1.12 | 0.933 | 1.09 | 0.74 | 0.223 | 0.343 | 0.513 | 0.439 | 0.741 | 0.971 | 0.903 | 0.945 | 0.726
NCI-H1395 | 1.14 | 1 | 1.05 | 1.08 | 0.741 | 1.38 | 1.13 | 1.05 | 0.913 | 0.818 | 0.607 | 0.61 | 0.441 | 0.651 | 0.668 | 1.46 | 1.16 | 1.15 | 1.28 | 0.867
NCI-H520 | 0.941 | 0.949 | 0.939 | 0.912 | 0.631 | 0.828 | 0.865 | 0.945 | 0.807 | 0.629 | 0.3 | 0.277 | 0.268 | 0.246 | 0.202 | 1.04 | 0.888 | 1.07 | 0.848 | 0.706
